Laboratory results: US10988523B2, “Modified lipidated Relaxin B chain peptides and their therapeutic use” (Sanofi, priority 2018, dated 2021)
Values after ≈ are worked out from the molar mass of the structure shown. Read-outs that look alike come from different tables or passages of the source. Blank lines part the entries; values can stand above or below the compound they belong to. *1 amine or outer side, *2 acyl side, *3 side chain or, on linkers, in order; H or OH if unused. Where a SMILES comes first, the peptide text is derived from it. Side-chain parts run from the residue outwards. [ ]: non-standard residue; d: D form. The star is where a group is joined. X2 = CCCCCCCCCCCCCCCCCC(=O)N[C@@H](CCC(=O)N[C@@H](CCC(=O)N[C@@H](CCC(=O)NCCCC[C@H](NC(=O)COCC(=O)NCCCOCCOCCOCCCNC(=O)COCC(=O)NCCCOCCOCCOCCCNC(=O)COCC(=O)NCCCOCCOCCOCCCN*)C(N)=O)C(=O)O)C(=O)O)C(=O)O; PEG12 = NCCOCCOCCOCCOCCOCCOCCOCCOCCOCCOCCOCCOCCC(=O)O; γGlu = O=C(O)[C@H](CCC(=O)[*:2])N[*:1]; Stearoyl = CCCCCCCCCCCCCCCCCC(=O)*; Palmitoyl = CCCCCCCCCCCCCCCC(=O)*; Nle = CCCC[C@H](N)C(=O)O; AEEA = NCCOCCOCC(=O)O; Aib = CC(C)(N)C(=O)O

How the values were obtained:
[1] = Pharmacokinetic (PK) determination after i.v. or s.c. administration to rats; type: in vivo, Sprague Dawley rats; conditions: Sprague Dawley, Rat PK; for C0 / half-life: iv, 1 mg/kg i.v.; for C0: extrapolated plasma concentration at t=0, read-out: C0; for half-life / Cmax / Tmax / bioavailability: plasma; for half-life: read-out: T½ (converted); for Cmax / Tmax: sc, 3 mg/kg s.c.; for bioavailability: subcutaneous, 3 mg/kg s.c. vs 1 mg/kg i.v., dose-corrected AUC ratio
Method in brief: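 Non-compartmental analysis of plasma LC/MS data (protein precipitation, BLQ taken as zero) gave T½, C0 (i.v.), Cmax/Tmax (s.c.) and F% from dose-corrected AUCs. Dosing: 3 mg/kg s.c. or 1 mg/kg i.v. in PBS to Sprague Dawley rats, purity- and salt-corrected.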

[2] = Solubility testing of peptides in buffer; type: physicochemical
Experimental: Prior to the testing of solubility of a peptide batch, its purity (HPLC-UV) was determined.
Acetate Buffer 50 mM pH4.5: 0.75 g […], 3H2O (Sigma 57545)+0.35 ml CH3CO2H 100% solution dissolved in Millipore water, adjusted to pH with diluted (1:1) CH3CO2H and diluted to 250 ml with Millipore water.
In a 4 ml Ependorph vial, an accurately weighed sample of compound was diluted in study media to obtain target concentration of 2, 6 or 10 mg/ml of pure compound. The sample vials were shacked (rock 'roll shaker) for ˜19 h. 3004, Aliquots ( ) were filtered through a Millipore “Solvinert” plate (0.45 μm—PTFE hydrophilic).
pH was measured with a micro electrode
Waters Acquity UPLC System with DAD detector
Column: Waters Peptide Column CSH C18 (130 Å; 1.7 μm; 50*2.1 mm)
Column temperature: 60° C.
Full loop (about 5 μL)—overfill factor 5
Weak et Strong wash: H2O/ACN (75/25; V/V); Seal wash: H2O/IsOH (95/5; V/V). Mobile phase:
Solvent A: 0.05% TFA in H2O; Solvent B: 0.035% TFA in CH3CN
Gradient: from 0 to 12 min B=2% to 60%, from 12 to 14 min B=60% to 100%. Column washing 100% B 1 min, column equilibration 2% B 2.5 min.
UV detector: wavelength: 220 nm.

RXFP1 = target: T1, RXFP1 (Homo sapiens, UniProt Q9HBX9); assay: OVCAR5 cAMP assay (HTRF), RXFP1 agonist activity; type: cell-based; conditions: for EC50: OVCAR5 cells, cAMP HTRF, read-out: EC50 (nM), OVCAR 5 cells (cAMP); for Emax: OVCAR-5, maximal cAMP relative to H2-relaxin maximum (100%), read-out: EMax, OVCAR 5 cells (cAMP)
T1 construct: OVCAR5 cells expressing endogenous RXFP1; endogenous in cells; host or cells: OVCAR5 cells
T1 sequence (Q9HBX9 1-757): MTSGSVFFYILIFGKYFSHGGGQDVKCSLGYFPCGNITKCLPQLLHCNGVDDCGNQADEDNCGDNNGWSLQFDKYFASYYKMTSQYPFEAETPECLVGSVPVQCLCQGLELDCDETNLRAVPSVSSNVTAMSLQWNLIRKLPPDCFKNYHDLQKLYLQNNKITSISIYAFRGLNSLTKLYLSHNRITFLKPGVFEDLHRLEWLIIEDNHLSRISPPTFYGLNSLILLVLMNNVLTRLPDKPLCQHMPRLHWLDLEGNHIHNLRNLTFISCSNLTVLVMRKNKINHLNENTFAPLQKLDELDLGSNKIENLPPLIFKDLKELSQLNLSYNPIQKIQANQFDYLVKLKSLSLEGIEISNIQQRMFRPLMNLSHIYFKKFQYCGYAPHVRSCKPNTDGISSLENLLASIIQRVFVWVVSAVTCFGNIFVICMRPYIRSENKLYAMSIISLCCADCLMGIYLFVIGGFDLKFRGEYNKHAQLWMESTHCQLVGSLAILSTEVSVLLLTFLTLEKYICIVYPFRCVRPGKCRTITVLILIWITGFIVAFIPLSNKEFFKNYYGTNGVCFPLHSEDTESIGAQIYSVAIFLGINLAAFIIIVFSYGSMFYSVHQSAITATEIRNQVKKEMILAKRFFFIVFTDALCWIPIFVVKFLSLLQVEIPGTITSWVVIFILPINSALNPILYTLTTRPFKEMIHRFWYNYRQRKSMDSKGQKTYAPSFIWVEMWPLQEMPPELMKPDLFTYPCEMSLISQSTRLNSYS
Method in brief: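 cAMP accumulation readout: after 1 mM IBMX for 40 min, endogenous-RXFP1 OVCAR5 cells got rising peptide concentrations without FCS, 30 min, 37° C, then lysis with HTRF cAMP reagents. Nonlinear regression gave EC50; Emax expressed relative to H2-relaxin maximum, same occasion.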

[3] = acetate buffer, pH 4.5, read-out: Solubility Acetate buffer pH 4.5
[4] = phosphate buffer, pH 7.4, read-out: Solubility phosphate buffer pH 7.4

- C0 [1]: 2900 nM
- half-life [1]: 8.96 h
- Cmax [1]: 1700 nM
- Tmax [1]: 6 h
- bioavailability [1]: 84%
- solubility [2, 3]: 7000 µg/mL (≈ 1740 µM)
- solubility [2, 4]: 7000 µg/mL (≈ 1740 µM)
- Emax (RXFP1): 89%
SMILES: CCCCCCCCCCCCCCCC(=O)N[C@@H](CCC(=O)N[C@@H](CCC(=O)N[C@@H](CCC(=O)NCCCC[C@H](NC(=O)CCOCCOCCOCCOCCOCCOCCOCCOCCOCCOCCOCCOCCNC(=O)[C@H](CCCCN)NC(=O)[C@H](CCCNC(=N)N)NC(=O)C(C)(C)NC(=O)[C@H](CO)NC(=O)[C@H](Cc1c[nH]c2ccccc12)NC(=O)[C@@H](NC(=O)[C@H](CO)NC(=O)[C@H](CCSC)NC(=O)CNC(=O)[C@H](CCC(=O)O)NC(=O)C(C)(C)NC(=O)C(C)(C)NC(=O)[C@@H](NC(=O)[C@H](CCC(N)=O)NC(=O)[C@H](C)NC(=O)[C@H](CCCNC(=N)N)NC(=O)[C@@H](NC(=O)[C@H](CCCCN)NC(=O)[C@H](CCC(=O)O)NC(=O)[C@H](CCCNC(=N)N)NC(=O)CNC(=O)[C@H](CCC(=O)O)NC(=O)[C@H](CC(C)C)NC(C)=O)C(C)C)[C@@H](C)CC)[C@@H](C)O)C(N)=O)C(=O)O)C(=O)O)C(=O)O [compound 23] (Ac-LEGREKVRAQI[Aib][Aib]EGMSTWS[Aib]RK[PEG12]K([γGlu-γGlu-γGlu-Palmitoyl])-NH2)

- C0 [1]: 2200 nM
- half-life [1]: 4.8 h
- Cmax [1]: 600 nM
- Tmax [1]: 4 h
- bioavailability [1]: 105%
- solubility [2, 3]: 7000 µg/mL (≈ 1740 µM)
- solubility [2, 4]: 7000 µg/mL (≈ 1740 µM)
- Emax (RXFP1): 89%
SMILES: CCCCCCCCCCCCCCCCCC(=O)N[C@@H](CCC(=O)N[C@@H](CCC(=O)N[C@@H](CCC(=O)NCCCC[C@H](NC(=O)CCOCCOCCOCCOCCOCCOCCOCCOCCOCCOCCOCCOCCNC(=O)[C@H](CCCCN)NC(=O)[C@H](CCCNC(=N)N)NC(=O)C(C)(C)NC(=O)[C@H](CO)NC(=O)[C@H](Cc1c[nH]c2ccccc12)NC(=O)[C@@H](NC(=O)[C@H](CO)NC(=O)[C@H](CCCC)NC(=O)CNC(=O)[C@H](CCC(=O)O)NC(=O)C(C)(C)NC(=O)C(C)(C)NC(=O)[C@@H](NC(=O)[C@H](CCC(N)=O)NC(=O)[C@H](C)NC(=O)[C@H](CCCNC(=N)N)NC(=O)[C@@H](NC(=O)[C@H](CCCCN)NC(=O)[C@H](CCC(=O)O)NC(=O)[C@H](CCCNC(=N)N)NC(=O)CNC(=O)[C@H](CCC(=O)O)NC(=O)[C@H](CC(C)C)NC(C)=O)C(C)C)[C@@H](C)CC)[C@@H](C)O)C(N)=O)C(=O)O)C(=O)O)C(=O)O [compound 30] (Ac-LEGREKVRAQI[Aib][Aib]EG[Nle]STWS[Aib]RK[PEG12]K([γGlu-γGlu-γGlu-Stearoyl])-NH2)

The next lines start with the compound.

SMILES: CCCCCCCCCCCCCCCCCC(=O)N[C@@H](CCC(=O)N[C@@H](CCC(=O)N[C@@H](CCC(=O)NCCCC[C@H](NC(=O)COCCOCCNC(=O)COCCOCCNC(=O)COCCOCCNC(=O)[C@H](CCCCNC(C)=O)NC(=O)[C@H](CCCCN)NC(=O)[C@H](CCCNC(=N)N)NC(=O)C(C)(C)NC(=O)[C@H](CO)NC(=O)[C@H](Cc1c[nH]c2ccccc12)NC(=O)[C@@H](NC(=O)[C@H](CO)NC(=O)[C@H](CCCC)NC(=O)CNC(=O)[C@H](CCC(=O)O)NC(=O)C(C)(C)NC(=O)C(C)(C)NC(=O)[C@@H](NC(=O)[C@H](CCCCNC(C)=O)NC(=O)[C@H](C)NC(=O)[C@H](CCCNC(=N)N)NC(=O)[C@@H](NC(=O)[C@H](CCCCN)NC(=O)[C@H](CCC(=O)O)NC(=O)[C@H](CCCNC(=N)N)NC(=O)CNC(=O)[C@H](CCC(=O)O)NC(=O)[C@H](CC(C)C)NC(C)=O)C(C)C)[C@@H](C)CC)[C@@H](C)O)C(N)=O)C(=O)O)C(=O)O)C(=O)O [compound 14] (Ac-LEGREKVRAK(Ac)I[Aib][Aib]EG[Nle]STWS[Aib]RKK(Ac)[AEEA][AEEA][AEEA]K([γGlu-γGlu-γGlu-Stearoyl])-NH2)
- C0 [1]: 4000 nM
- half-life [1]: 3.4 h
- Cmax [1]: 1500 nM
- Tmax [1]: 6 h
- bioavailability [1]: 93%
- solubility ([2]; phosphate buffer 50 mM pH 7.4, target solubility 2.0 mg/ml, read-out: Solubility phosphate buffer pH 7.4): > 2100 µg/mL
- EC50 (RXFP1): 0.04 nM
- Emax (RXFP1): 88%

SMILES: CCCCCCCCCCCCCCCCCC(=O)N[C@@H](CCC(=O)N[C@@H](CCC(=O)N[C@@H](CCC(=O)NCCCC[C@H](NC(=O)COCC(=O)NCCCOCCOCCOCCCNC(=O)COCC(=O)NCCCOCCOCCOCCCNC(=O)COCC(=O)NCCCOCCOCCOCCCNC(=O)[C@H](CCCCNC(C)=O)NC(=O)[C@H](CCCCN)NC(=O)[C@H](CCCNC(=N)N)NC(=O)C(C)(C)NC(=O)[C@H](CO)NC(=O)[C@H](Cc1c[nH]c2ccccc12)NC(=O)[C@@H](NC(=O)[C@H](CO)NC(=O)[C@H](CCCC)NC(=O)CNC(=O)[C@H](CCC(=O)O)NC(=O)C(C)(C)NC(=O)C(C)(C)NC(=O)[C@@H](NC(=O)[C@H](CCCCNC(C)=O)NC(=O)[C@H](C)NC(=O)[C@H](CCCNC(=N)N)NC(=O)[C@@H](NC(=O)[C@H](CCCCN)NC(=O)[C@H](CCC(=O)O)NC(=O)[C@H](CCCNC(=N)N)NC(=O)CNC(=O)[C@H](CCC(=O)O)NC(=O)[C@H](CC(C)C)NC(C)=O)C(C)C)[C@@H](C)CC)[C@@H](C)O)C(N)=O)C(=O)O)C(=O)O)C(=O)O [compound 20] (Ac-LEGREKVRAK(Ac)I[Aib][Aib]EG[Nle]STWS[Aib]RKK(Ac)-X2)
- C0 [1]: 4000 nM
- half-life [1]: 3.96 h
- Cmax [1]: 3000 nM
- Tmax [1]: 8 h
- bioavailability [1]: 73%
- solubility [2, 3]: 5600 µg/mL (≈ 1220 µM)
- solubility [2, 4]: 5600 µg/mL (≈ 1220 µM)
- Emax (RXFP1): 88%

SMILES: CCCCCCCCCCCCCCCC(=O)N[C@@H](CCC(=O)NCCCC[C@H](NC(=O)CC[C@H](NC(=O)CC[C@H](NC(=O)COCCOCCNC(=O)COCCOCCNC(=O)COCCOCCNC(=O)[C@H](CCCCN)NC(=O)[C@H](CCCCN)NC(=O)[C@H](CCCCN)NC(=O)[C@H](CCCNC(=N)N)NC(=O)C(C)(C)NC(=O)[C@H](CO)NC(=O)[C@H](Cc1c[nH]c2ccccc12)NC(=O)[C@@H](NC(=O)[C@H](CO)NC(=O)[C@H](CCCC)NC(=O)CNC(=O)[C@H](CCC(=O)O)NC(=O)C(C)(C)NC(=O)C(C)(C)NC(=O)[C@@H](NC(=O)[C@H](CCC(N)=O)NC(=O)[C@H](C)NC(=O)[C@H](CCCNC(=N)N)NC(=O)[C@@H](NC(=O)[C@H](CCCCN)NC(=O)[C@H](CCC(=O)O)NC(=O)[C@H](CCCNC(=N)N)NC(=O)CNC(=O)[C@H](CCC(=O)O)NC(=O)[C@H](CC(C)C)NC(C)=O)C(C)C)[C@@H](C)CC)[C@@H](C)O)C(=O)O)C(=O)O)C(N)=O)C(=O)O [compound 109] (Ac-LEGREKVRAQI[Aib][Aib]EG[Nle]STWS[Aib]RKKK[AEEA][AEEA][AEEA][γGlu][γGlu]K([γGlu-Palmitoyl])-NH2)
- solubility [2, 3]: 5900 µg/mL (≈ 1440 µM)
- solubility [2, 4]: 5900 µg/mL (≈ 1440 µM)
- EC50 (RXFP1): 0.15 nM
- Emax (RXFP1): 98%
